Experimental data taken from ChEMBL document CHEMBL1938230, “6-Position optimization of tricyclic 4-quinolone-based inhibitors of glycogen synthase kinase-3β: discovery of nitrile derivatives with picomolar potency” (Bioorg Med Chem Lett, 2012).
≈ marks a conversion by molar mass, not a printed value.

What was measured:
[1] = molecular target: Glycogen synthase kinase-3 beta (Homo sapiens, UniProt P49841); assay: Inhibition of GSK3-beta
Escherichia coli = assay: Antibacterial activity against Escherichia coli ATCC 8739; type: ADME, organism-based
Staphylococcus aureus = assay: Antibacterial activity against Staphylococcus aureus Smith; type: ADME, organism-based

Sequence of Glycogen synthase kinase-3 beta (P49841 whole entry): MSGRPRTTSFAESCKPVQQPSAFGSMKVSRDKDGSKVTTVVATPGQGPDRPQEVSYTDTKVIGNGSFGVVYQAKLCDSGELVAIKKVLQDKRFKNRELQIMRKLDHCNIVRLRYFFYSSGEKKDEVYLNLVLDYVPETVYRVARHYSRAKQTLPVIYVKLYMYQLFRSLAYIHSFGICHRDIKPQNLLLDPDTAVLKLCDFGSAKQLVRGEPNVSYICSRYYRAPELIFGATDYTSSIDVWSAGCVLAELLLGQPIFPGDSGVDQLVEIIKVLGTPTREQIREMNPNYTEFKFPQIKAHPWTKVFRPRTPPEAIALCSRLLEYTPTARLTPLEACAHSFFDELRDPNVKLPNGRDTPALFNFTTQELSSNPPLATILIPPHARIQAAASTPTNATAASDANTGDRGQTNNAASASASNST

Row | SMILES | IC50 [1] [µM] | MIC (Escherichia coli) [µM] | MIC (Staphylococcus aureus) [µM]
1 | C[C@H]1COc2c(NCCCc3ccccc3)c(F)c(N)c3c(=O)c(C(N)=O)cn1c23 | 0.067 | > 78 | 78 (≈ 32 µg/mL)
2 | C[C@H]1COc2c(NCCCn3ccnc3)c(F)c(N)c3c(=O)c(C(=O)O)cn1c23 | 0.15 | 16 (≈ 6.42 µg/mL) | 8 (≈ 3.21 µg/mL)
3 | C[C@H]1COc2c(NCCNc3ccccn3)c(F)c(N)c3c(=O)c(C(=O)O)cn1c23 | – | 4 (≈ 1.65 µg/mL) | 2 (≈ 0.827 µg/mL)
4 | C[C@H]1COc2c(NCCCn3ccnc3)c(F)c(N)c3c(=O)c(-c4nnn[nH]4)cn1c23 | 0.02 | > 257 | > 257
5 | C[C@H]1COc2c(NCCCc3ccccc3)c(F)c(N)c3c(=O)c(C(=O)O)cn1c23 | 0.04 | > 39 | 2 (≈ 0.823 µg/mL)
6 | C[C@H]1COc2c(NCCCn3ccnc3)c(F)c(N)c3c(=O)c(C(=N)NO)cn1c23 | 0.14 | – | –
7 | C[C@H]1COc2c(NCCCn3ccnc3)c(F)c(N)c3c(=O)c(C(N)=O)cn1c23 | 0.18 | > 249 | > 249
8 | C[C@H]1COc2c(NCCNc3ccccn3)c(F)c(N)c3c(=O)c(C(N)=O)cn1c23 | 0.033 | > 285 | > 285
9 | C[C@H]1COc2c(NCCNc3ccccn3)c(F)c(N)c3c(=O)c(C#N)cn1c23 | 0.00057 | – | –
10 | C[C@H]1COc2c(NCCCc3ccccn3)c(F)c(N)c3c(=O)c(C(=N)NO)cn1c23 | 0.071 | – | –
11 | C[C@H]1COc2c(NCCCn3ccnc3)c(F)c(N)c3c(=O)c(C#N)cn1c23 | 0.001 | > 306 | > 306
12 | C[C@H]1COc2c(NCCCc3ccccn3)c(F)c(N)c3c(=O)c(-c4nnn[nH]4)cn1c23 | 0.0024 | > 274 | 69 (≈ 30.1 µg/mL)
13 | C[C@H]1COc2c(NCCCc3ccccc3)c(F)c(N)c3c(=O)c(C#N)cn1c23 | 0.0014 | – | –
